Patent publication US20250352600A1, “DIETARY SUPPLEMENTS FOR BRAIN HEALTH” (Melaleuca, Inc., priority 2024, published 2025)

Experiments:
Format in all cases: in vivo, human
[1] = Low-Caffeine User Clinical Study, Profile of Mood States (POMS) survey; details: low-caffeine users
Description: This study included subjective (POMS and product questions) and objective (CNSVS) tests.

[2] = Moderate-Caffeine User Follow-Up, product questions (statement agreement)
Description: (§1) The study included subjective tests (POMS and product questions) only. […] There were 7 male and 6 female participants with an average age of 39.5 years.

[3] = Moderate-Caffeine User Follow-Up, Profile of Mood States (POMS) survey; design: Fatigue / Vigor / Confusion / TMD / Tension / Esteem-related Affect: scale not given here; details: moderate-caffeine users; for TMD: total mood disturbance
Description: as §1

[4] = Moderate-Dose Caffeine Cohort (mean 338 mg/d), n = 12-13
[5] = Statement Agreement, Moderate-Dose Caffeine Cohort (mean 338 mg/d), n = 12-13

## Cn1c(=O)c2c(ncn2C)n(C)c1=O [Caffeine, caffeine]
[1]; n = 30, Post
  Anger: 0.90
  Confusion: 1.20
  Depression: 0.60
  Esteem-related Affect: 14.63
  Fatigue: 2.77
  Tension: 2.80
  Vigor: 7.27
[1]; n = 30, Pre
  Anger: 1.55
  Confusion: 2.93
  Depression: 1.79
  Esteem-related Affect: 13.59
  Fatigue: 5.66
  Tension: 4.48
  Vigor: 5.69
[1]; total mood disturbance, n = 30, Post
  TMD: −13.63
[2]; [4]
  I am in a better mood after having taken the product, % Top 2 Box: 42%
  I had no trouble recalling [things] after taking the product, % Top 2 Box: 58%
  I was better able to focus after taking the product, % Top 2 Box: 58%
  I was more alert after taking the product, % Top 2 Box: 58%
  The product enhanced my ability to pay attention, % Top 2 Box: 58%
  The product improved my energy levels, % Top 2 Box: 67%
[2]; [5]
  I am in a better mood after having taken the product, Scores: 3.33
  I had no trouble recalling [things] after taking the product, Scores: 3.67
  I was better able to focus after taking the product, Scores: 3.25
  I was more alert after taking the product, Scores: 3.67
  The product enhanced my ability to pay attention, Scores: 3.50
  The product improved my energy levels, Scores: 3.75
[2]; moderate-caffeine users
  performance of treatment arms among those with moderate caffeine intake: performed better
[3]; n = 12-13, Post
  Confusion: 1.17 ± 2.92
  Depression: 1.17 ± 4.04
  Esteem-related Affect: 15.92 ± 3.15
  Fatigue: 2.25 ± 3.02
  Tension: 1.83 ± 3.54
  TMD: −17.17 ± 17.69
[3]; n = 12-13, Post, listed as caffeine
  Fatigue: did not relieve
[3]; n = 12-13, Pre
  Confusion: 2.25 ± 2.38
  Depression: 1.50 ± 3.45
  Esteem-related Affect: 14.42 ± 3.23
  Fatigue: 5.58 ± 4.70
  Tension: 3.00 ± 2.73
  Vigor: 4.25 ± 2.93
  TMD: −4.92 ± 13.92
